Experimental data taken from patent US9192567B2, “Method for treating eye disease or conditions affecting the posterior segment of the eye” (SANTEN SAS, priority 2006, dated 2015).

Experiment: Intraocular pharmacokinetics of dexamethasone palmitate and dexamethasone following intravitreal administration
Conditions: following IVT injection of 800 ug of prodrug
Source text: Analytes and internal standard (roxithromycine) were extracted from the tissues using acetonitrile and separated by reverse phase liquid chromatography with a C8 column and a gradient mobile phase. […] The unweighed linear model was applied.
All concentrations are expressed in ng/g.

time for which therapeutic levels were maintained in the target tissues: at least 2 months
Compound: C[C@@H]1C[C@H]2[C@@H]3CCC4=CC(=O)C=C[C@]4(C)[C@@]3(F)[C@@H](O)C[C@]2(C)[C@@]1(O)C(=O)CO [D, dexamethasone]
